The values that follow come from patent US20260248763A1 (BIO GENUINE (SHANGHAI) BIOTECH CO., LTD, priority 2023, published 2026).

The target in assay [1] is T1, V1aR (Homo sapiens, UniProt P37288).
T1 construct: expressed in transfected cells; host or cells: V1a-CHO stably transfected cell line
Kind of assay: Ca2+ mobilization in cells stably expressing V1aR (FLIPR, antagonist mode). Format: cell-based. Conditions: V1a-CHO stably transfected cell line. From the text: Test Example 2. Determination of the Effect of the Compound of the Present Disclosure on Ca^2+ Mobilization in Cells Stably Expressing V1aR
To measure the antagonistic effect of the compound of the present disclosure on V1aR activity expressed in the V1a-CHO stably transfected cell line.
• F-12 (Hyclone, SH30026.01) • FLIPR CALCIUM 6 ASSAY KIT (Molecul Device, R8191) • Fetal Bovine Serum (FBS) (AusGeneX, FBS500-S) • Hygromycin B (Solarbio, H8080-1g) • DMSO (Sigma, D4540) • HBSS (Gibco 14025-092) • Probenecid (MCE, HY—B0545) • 0.36 mL 96 Round V-bottom Deep Well Plates for Laboratory (Biaosen P-0.36-BSA-96) • 384-well conical bottom polypropylene plate (Nunc, 264573) • Corning® 384-well Flat Clear Bottom Black Polystyrene TC-treated Microplates (Corning 3764)
• Biological safety cabinet (ECSO, AC2-6S1-TC) • Carbon dioxide cell incubator (ECSO, CCI-170B-8) • Inverted microscope (Olympus, CKX53) • Microplate low-speed centrifuge (Xiangzhi, TD5B) • FLIPR® Penta (Molecul Device, 5.0)
• 1. Cell plating: V1a-CHO cells were digested and harvested, resuspended and counted, and then inoculated into a 384-well cell plate at a density of: 1.2×10^4 cells/25 μL/well. The cell plate was then incubated in an incubator at 37° C. with 5% CO2 for about 16-20 h. • 2. The next day: after preparing Assay Buffer, 20× Component A was thawed to room temperature, diluted with Assay buffer to 1× loading buffer, and placed at room temperature for later use. • 3. The medium was removed from the cell plate, and 40 μL of 1× loading buffer was quickly added to each well. After centrifugation, the cell plate was incubated at 37° C. in the dark for 120 minutes. • 4. The serially diluted positive compound, serially diluted test compound, and agonist working solution were formulated. After mixing the serially diluted positive compound/serially diluted test compound with the agonist at a 1:1 ratio, 20 μL per well was transferred to a 384-well compound source plate. • 5. The cell plate, agonist source plate, and pipette tips were placed into their respective positions in the FLIPR instrument. Using FLIPR Tetra, 10 μL of the diluted agonist from Step 4 was added to each test well, and the data were collected at a wavelength of 515 nm-575 nm. • 6. The signal values were plotted against the compound concentrations, and the curve fitting and IC50 calculation were performed using the nonlinear regression method of GraphPad Prism software.
(In general: A change in cytosolic calcium serves as a functional read-out for many receptors and channels.)

For assay [2], the target named is T2, OTR (Homo sapiens, UniProt P30559).
T2 construct: expressed in transfected cells; host or cells: OTR/HEK293 stably transfected cell line
T2 sequence (P30559 1-389): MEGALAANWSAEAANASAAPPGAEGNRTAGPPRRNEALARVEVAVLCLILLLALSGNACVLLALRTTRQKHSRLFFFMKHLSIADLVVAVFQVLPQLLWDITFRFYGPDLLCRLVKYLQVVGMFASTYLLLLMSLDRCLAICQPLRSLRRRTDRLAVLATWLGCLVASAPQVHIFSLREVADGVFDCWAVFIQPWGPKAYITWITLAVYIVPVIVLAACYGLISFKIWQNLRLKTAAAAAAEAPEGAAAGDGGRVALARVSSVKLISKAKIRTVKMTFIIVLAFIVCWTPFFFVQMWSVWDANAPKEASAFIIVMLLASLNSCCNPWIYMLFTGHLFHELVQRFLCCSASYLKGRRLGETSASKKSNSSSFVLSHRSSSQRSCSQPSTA
Kind of assay: Ca2+ mobilization in cells stably expressing OTR (FLIPR, antagonist mode). Format: cell-based. Conditions: OTR/HEK293 stably transfected cell line. The method in brief: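 OTR/HEK293 stable cells (20,000 per well) were loaded with Fluo-4 Direct plus probenecid. Cells were pre-exposed to 10-point, 3-fold compound dilutions before agonist challenge at EC80, determined beforehand per cell line. FLIPR calcium fluorescence (Max-Min) was fitted in Prism.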

pIC50: −log10 of the molar value.

T1 sequence (P37288 whole entry, species assumed): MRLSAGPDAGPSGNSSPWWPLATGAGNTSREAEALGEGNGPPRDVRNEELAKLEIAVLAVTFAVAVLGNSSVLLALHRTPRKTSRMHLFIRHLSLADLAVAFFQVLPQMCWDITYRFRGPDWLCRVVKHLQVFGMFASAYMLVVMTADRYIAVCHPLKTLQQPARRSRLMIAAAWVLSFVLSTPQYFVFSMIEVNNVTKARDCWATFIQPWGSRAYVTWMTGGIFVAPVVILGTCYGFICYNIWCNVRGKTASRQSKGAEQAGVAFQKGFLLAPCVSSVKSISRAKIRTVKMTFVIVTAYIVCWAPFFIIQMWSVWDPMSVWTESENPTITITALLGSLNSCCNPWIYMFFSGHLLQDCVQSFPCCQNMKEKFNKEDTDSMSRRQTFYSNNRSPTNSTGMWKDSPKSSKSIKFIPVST

Take `CO/N=C1/C[C@@H](CO)N(C(=O)c2ccc(-c3cccc(C)c3C)cc2)C1` [Example C0036, (S,Z)-(2′,3′-Dimethyl-[1,1′-biphenyl]-4-yl)(2-(hydroxymethyl)-4-(methoxyimino)pyrrolidin-1-yl)methanone]: the figures for the pIC50 in assay [1] and in assay [2] were 6.10 and 7.49, respectively.

In the case of `CO/N=C1/C[C@@H](CO)N(C(=O)c2ccc(-c3cccc(C)c3C)cc2OC)C1` [Example C0038, (S,Z)-(2-(Hydroxymethyl)-4-(methoxyimino)pyrrolidin-1-yl)(3-methoxy-2′,3′-dimethyl-[1,1′-biphenyl]-4-yl)methanone], the pIC50 (in general, −log10 of the IC50, conventionally taken in molar units) in assay [1] is 5.86; in assay [2], 7.87.

On to `CO/N=C1/C[C@@H](CO)N(C(=O)c2cnc(-c3cccc(Cl)c3C)cn2)C1` [Example C0041, (S, Z)-(5-(3-Chloro-2-methylphenyl)pyrazin-2-yl)(2-(hydroxymethyl)-4-(methoxyimino)pyrrolidin-1-yl)methanone], for which the values for the pIC50 in assay [1] and in assay [2] were 5.76 and 7.31, respectively.

On to `CO/N=C1/C[C@@H](CO)N(C(=O)c2ccc(-c3ccccc3C)cc2C)C1` [Example C0044, (S, Z)-(2′,3-Dimethyl-[1,1′-biphenyl]-4-yl)(2-(hydroxymethyl)-4-(methoxyimino)pyrrolidin-1-yl)methanone], for which the pIC50 in assay [1] was 5.26; in assay [2], 7.11.

As to `CO/N=C1/C[C@@H](CO)N(C(=O)c2ccc(-c3cccc(C)c3C)cc2C)C1` [Example C0045, (S, Z)-(2-(Hydroxymethyl)-4-(methoxyimino)pyrrolidin-1-yl)(3-methyl-2′,3′-dimethyl-[1,1′-biphenyl]-4-yl)methanone], the pIC50 in assay [1] is 5.46; in assay [2], 7.80.

Consider `CO/N=C1/C[C@@H](CO)N(C(=O)c2ccc(-c3ccccc3C)c(C)c2)C1` [Example C0046, (S, Z)-(2′,2-Dimethyl-[1,1′-biphenyl]-4-yl)(2-(hydroxymethyl)-4-(methoxyimino)pyrrolidin-1-yl)methanone], for which the pIC50 in assay [1] is 5.73; in assay [2] it was 7.66.

As for `CO/N=C1/C[C@@H](CO)N(C(=O)c2ccc(-c3cccc(C)c3C)c(C)c2)C1` [Example C0047, (S, Z)-(2,2′,3′-Trimethyl-[1,1′-biphenyl]-4-yl)(2-(hydroxymethyl)-4-(methoxyimino)pyrrolidin-1-yl)methanone], the pIC50 is 5.62 in assay [1] and 7.95 in assay [2].

Regarding `CO/N=C1/C[C@@H](CO)N(C(=O)c2ccc(-c3cccc(Cl)c3C)cc2)C1` [Example C0056, (S, Z)-(3′-Chloro-2′-methyl-[1,1′-biphenyl]-4-yl)(2-(hydroxymethyl)-4-(methoxyimino)pyrrolidin-1-yl)methanone], the results for the pIC50 in assay [1] and in assay [2] were 5.56 and 7.99, respectively.

For the compound `CO/N=C1/C[C@@H](CO)N(C(=O)c2ccc(-c3cccc(C(F)(F)F)c3C)cc2)C1` [Example C0060, (S,Z)-(2-(Hydroxymethyl)-4-(methoxyimino)pyrrolidin-1-yl)(2′-methyl-3′-(trifluoromethyl)-[1,1′-biphenyl]-4-yl)methanone], the pIC50 is 5.49 in assay [1] and 7.75 in assay [2].

Turning to `CO/N=C1/C[C@@H](CO)N(C(=O)c2ccc(-c3cccc(C)c3C)c3c2OCO3)C1` [Example C0062, (S, Z)-(7-(2,3-Dimethylphenyl)benzo[d][1,3]dioxol-4-yl)(2-(hydroxymethyl)-4-(methoxyimino)pyrrolidin-1-yl)methanone], the pIC50 in assay [1] was 5.56; in assay [2] it was 7.97.

Consider `CO/N=C1/C[C@@H](CO)N(C(=O)c2ccc(-c3cccc(C)c3C)c(OC)c2)C1` [Example C0064, (S, Z)-(2-(Hydroxymethyl)-4-(methoxyimino)pyrrolidin-1-yl)(2-methoxy-2′,3′-dimethyl-[1,1′-biphenyl]-4-yl)methanone], for which the results for the pIC50 in assay [1] and in assay [2] were 6.23 and 7.96, respectively.

Take `CO/N=C1/C[C@@H](CO)N(C(=O)c2ccc(-c3cccc(OC)c3C)cc2)C1` [Example C0066, (S, Z)-(2-(Hydroxymethyl)-4-(methoxyimino)pyrrolidin-1-yl)(3′-methoxy-2′-methyl-[1,1′-biphenyl]-4-yl)methanone]: the pIC50 in assay [1] was 5.67; in assay [2], 7.14.

As for `CO/N=C1/C[C@@H](CO)N(C(=O)c2ccc(-c3cccc(C)c3C)c(OC)n2)C1` [Example C0073, (S, Z)-(5-(2,3-Dimethylphenyl)-6-methoxypyridin-2-yl)(2-(hydroxymethyl)-4-(methoxyimino)pyrrolidin-1-yl)methanone], the pIC50 was 5.30 in assay [1] and 7.37 in assay [2].

Take `CO/N=C1/C[C@@H](CO)N(C(=O)c2ccc(-c3ccc(C#N)c(C)c3C)cc2)C1` [Example C0075, (S, Z)-4′-(2-(Hydroxymethyl)-4-(methoxyimino)pyrrolidine-1-carbonyl)-2,3-dimethyl-[1,1′-biphenyl]-4-carbonitrile]: the pIC50 in assay [1] was 4.70; in assay [2], 7.33.

As to `CO/N=C1/C[C@@H](CO)N(C(=O)c2ccc(-c3cccc(C(F)F)c3C)cc2)C1` [Example C0079, (S, Z)-(3′-(Difluoromethyl)-2′-methyl-[1,1′-biphenyl]-4-yl)(2-(hydroxymethyl)-4-(methoxyimino)pyrrolidin-1-yl)methanone], the values for the pIC50 in assay [1] and in assay [2] were 6.03 and 7.56, respectively.

In the case of `CO/N=C1/C[C@@H](CO)N(C(=O)c2ccc(-c3cccc(C)c3C)c3c2CCC3)C1` [Example C0083, (S,Z)-(7-(2,3-Dimethylphenyl)-2,3-dihydro-1H-inden-4-yl)(2-(hydroxymethyl)-4-(methoxyimino)pyrrolidin-1-yl)methanone], the values for the pIC50 in assay [1] and in assay [2] were 5.53 and 7.95, respectively.

`CO/N=C1/C[C@@H](CO)N(C(=O)c2ccc(-c3cccc(C(F)F)c3C)c3c2OCO3)C1` [Example C0118, (S, Z)-(7-(3-(Difluoromethyl)-2-methylphenyl)benzo[d][1,3]dioxolan-4-yl)(2-(hydroxymethyl)-4-(methoxyimino)pyrrolidin-1-yl)methanone]: the pIC50 in assay [1] is 5.94; in assay [2] it was 7.48.

Regarding `CO/N=C1/C[C@@H](CO)N(C(=O)c2ccc(-c3ccc(F)c(C#N)c3C)c3c2OCO3)C1` [Example C0123, (S, Z)-6-Fluoro-3-(7-(2-(hydroxymethyl)-4-(methoxyimino)pyrrolidine-1-carbonyl)benzo[d][1,3]dioxolan-4-yl)-2-methylbenzonitrile], the pIC50 in assay [1] was 5.04; in assay [2], 7.79.

On to `CO/N=C1\C[C@@H](CO)N(C(=O)c2ccc(-c3cccc(C#N)c3C)c3c2OCCO3)C1` [Example C0132, (S,E)-3-(8-(2-(Hydroxymethyl)-4-(methoxyimino)pyrrolidine-1-carbonyl)-2,3-dihydrobenzo[b][1,4]dioxin-5-yl)-2-methylbenzonitrile], for which the negative-log IC50 (pIC50) in assay [1] was 5.08; in assay [2], 7.94.

As for `CO/N=C1/C[C@@H](CO)N(C(=O)c2ccc(-c3cccc(C#N)c3C)c3c2OCCO3)C1` [Example C0133, (S,Z)-3-(8-(2-(Hydroxymethyl)-4-(methoxyimino)pyrrolidine-1-carbonyl)-2,3-dihydrobenzo[b][1,4]dioxin-5-yl)-2-methylbenzonitrile], the figures for the pIC50 in assay [1] and in assay [2] were 5.63 and 8.09, respectively.

Regarding `CO/N=C1/C[C@@H](CO)N(C(=O)c2ccc(-c3c(F)ccc(C#N)c3C)c3c2OCCO3)C1` [Example C0150, 4-Fluoro-3-(8-((S,Z)-2-(hydroxymethyl)-4-(methoxyimino)pyrrolidine-1-carbonyl)-2,3-dihydrobenzo[b][1,4]dioxin-5-yl)-2-methylbenzonitrile], the values for the pIC50 in assay [1] and in assay [2] were 5.39 and 8.15, respectively.
